The results in this text go back to patent US20130252930A1 (BIOMARIN PHARMACEUTICAL INC., priority 2010, published 2013).

The target in assay [1] is T1, CYP17 (human testicular microsome) (Homo sapiens, UniProt P05093).
T1 construct: using microsomal fraction from human testis (Celsis Cat #S00110) as the enzyme source; tissue Celsis S00110; host or cells: human testis microsomal fraction
T1 sequence (P05093 1-508): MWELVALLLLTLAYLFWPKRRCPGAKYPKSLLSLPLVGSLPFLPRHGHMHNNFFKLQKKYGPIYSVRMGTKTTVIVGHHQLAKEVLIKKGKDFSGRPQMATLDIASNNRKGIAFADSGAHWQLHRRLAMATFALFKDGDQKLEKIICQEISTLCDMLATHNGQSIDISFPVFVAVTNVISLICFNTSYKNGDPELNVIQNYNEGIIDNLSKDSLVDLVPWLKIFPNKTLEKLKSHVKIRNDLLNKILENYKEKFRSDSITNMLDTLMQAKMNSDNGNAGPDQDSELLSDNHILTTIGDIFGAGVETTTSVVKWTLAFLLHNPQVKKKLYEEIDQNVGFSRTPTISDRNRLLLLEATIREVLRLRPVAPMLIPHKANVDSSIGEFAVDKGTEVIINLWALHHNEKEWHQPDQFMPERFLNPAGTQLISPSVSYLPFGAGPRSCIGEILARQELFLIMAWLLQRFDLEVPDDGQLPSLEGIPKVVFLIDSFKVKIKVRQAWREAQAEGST
Nature of the assay: CYP17 enzymatic assay (IC50) (Biological Example 4). The assay is classed as biochemical. To be noted: human testicular microsome, DHEA by ELISA; read-out: Biological Example No. 4: CYP17 enzymatic assay IC50.
Description: The assays were performed in 96-well plates. Typical assays were carried out in total 100 μL volume that included test compounds at designated concentrations, 1× reaction buffer, 0.5 mM NADPH, 1 μM 17α-hydroxypregnenolone, and 2.5 μL of diluted human testicular microsome (Celsis. Cat #S00110). Reaction without test compound served as positive control. Reactions were allowed to incubate at 37° C. for 90 minutes with gentle shaking. The reaction was stopped by directly applying the enzymatic reaction mixture to ELISA plate for evaluation of DHEA concentration according to manufacturer's protocol (IBL America). A standard curve (OD450 vs. DHEA concentration) was generated using purified DHEA.

The target of assay [2] is T1, CYP17 (human testicular microsome). Nature of the assay: CYP17 enzymatic assay (% inhibition at 10 nM), version 1 (Biological Example 5). The assay is classed as biochemical.
The mark [3] stands for this setting: 10 nM compound, DHEA by ELISA, read-out: Biological Example No. 5: CYP17 percent inhibition at 10 nM (version 1).
The mark [4] stands for this setting: compound at 10 nM, read-out: CYP17 enzymatic assay % inhibition at 10 nM (Biological Example No. 5).

Where two headings read alike, the source gives them in different places.

What is called IC50 is the midpoint of a concentration-inhibition curve. As usually defined, the inhibition is the percentage by which the read-out fell short of the control. Take `CCCOc1cncc(C2=CC[C@H]3[C@@H]4CCN5C(=O)CCCC[C@]5(C)[C@H]4CC[C@]23C)c1` [Compound 42, (11aR,13aS)-11a,13a-dimethyl-1-(5-propoxypyridin-3-yl)-3b,4,5,8,9,10,11,11a,11b,12,13,13a-dodecahydro-3H-azepino[2,1-a]cyclopenta[f]isoquinolin-7(3aH)-one]: the half-inhibitory concentration (IC50) in assay [1] was < 11 nM. Moreover, the inhibition at 0.01 µM in assay [2] (setting [3]) lay in the range of 50 to 80%.
For `C=Cc1cncc(C2=CC[C@H]3[C@@H]4CCN5C(=O)CCCC[C@]5(C)[C@H]4CC[C@]23C)c1` [Compound 43, (11aR,13aS)-11a,13a-dimethyl-1-(5-vinylpyridin-3-yl)-3b,4,5,8,9,10,11,11a,11b,12,13,13a-dodecahydro-3H-azepino[2,1-a]cyclopenta[f]isoquinolin-7(3aH)-one], the IC50 in assay [1] is < 11 nM. For the same compound, the inhibition at 0.01 µM in assay [2] (setting [3]) lay in the range of 50 to 80%.
Take `C[C@]12CCC(=O)NCC1CCC1C2CC[C@]2(C)C(n3ccnc3)=CCC12` (stereo partly drawn) [Compound 136, (5aR,7aS)-8-(1H-imidazol-1-yl)-5a,7a-dimethyl-1,2,5,5a,5b,6,7,7a,10,10a,10b,11,12,12a-tetradecahydrocyclopenta[5,6]naphtho[2,1-c]azepin-3(4H)-one]: in assay [2] (setting [3]), the inhibition at 0.01 µM lay within 50 to 80%.
Same read-out and setting: in the case of `C[C@]12CCC(=O)NC[C@@H]1CC[C@@H]1[C@@H]2CC[C@]2(C)C(n3ccnn3)=CC[C@@H]12` [Compound 138, (5aR,5bS,7aS,10aS,10bR,12aR)-5a,7a-dimethyl-8-(1H-1,2,3-triazol-1-yl)-1,2,5,5a,5b,6,7,7a,10,10a,10b,11,12,12a-tetradecahydrocyclopenta[5,6]naphtho[2,1-c]azepin-3(4H)-one] it was 1 to 50%; in that of `C[C@]12CCNCCC1CCC1C2CC[C@]2(C)C(n3ccnn3)=CCC12` (stereo partly drawn) [Compound 139, (5aS,7aS)-5a,7a-dimethyl-8-(1H-1,2,3-triazol-1-yl)-1,2,3,4,5,5a,5b,6,7,7a,10,10a,10b,11,12,12a-hexadecahydrocyclopenta[5,6]naphtho[1,2-d]azepine], 1 to 50%.
Same read-out and setting: with `C[C@]12CCCNCC1CCC1C2CC[C@]2(C)C(n3ccnn3)=CCC12` (stereo partly drawn) [Compound 140, (5aR,7aS)-5a,7a-dimethyl-8-(1H-1,2,3-triazol-1-yl)-1,2,3,4,5,5a,5b,6,7,7a,10,10a,10b,11,12,12a-hexadecahydrocyclopenta[5,6]naphtho[2,1-c]azepine] the figure was 1 to 50%; with `CC(=O)N1CCC[C@@]2(C)[C@@H](CC[C@@H]3[C@@H]2CC[C@]2(C)C(n4ccnn4)=CC[C@@H]32)C1` [Compound 141, 1-((5aR,5bS,7aS,10aS,10bR,12aR)-5a,7a-dimethyl-8-(1H-1,2,3-triazol-1-yl)-3,4,5,5a,5b,6,7,7a,10,10a,10b,11,12,12a-tetradecahydrocyclopenta[5,6]naphtho[2,1-c]azepin-2(1H)-yl)ethanone], < 1%.
Regarding `COc1cncc(C2=CC[C@H]3[C@@H]4CCC5=CCN(C)CC[C@]5(C)[C@H]4CC[C@]23C)c1` [Compound 148], the inhibition at 0.01 µM in assay [2] (setting [3]) fell in the range of 1 to 50%.
Still for that read-out and setting: in the case of `CCCOc1cncc(C2=CC[C@H]3[C@@H]4CCC5=CCN(C)CC[C@]5(C)[C@H]4CC[C@]23C)c1` [Compound 149] it was 1 to 50%.
For `CCc1cncc(C2=CC[C@H]3[C@@H]4CCC5=CCN(C)CC[C@]5(C)[C@H]4CC[C@]23C)c1` [Compound 150], the inhibition at 0.01 µM in assay [2] (setting [3]) lay in the range of 1 to 50%.
Still for that read-out and setting: in the case of `CN1CC[C@@]2(C)C(=CC1=O)CC[C@@H]1[C@@H]2CC[C@]2(C)C(n3cnc4ccccc43)=CC[C@@H]12` [Compound 155] it was 1 to 50%.
The same measure, in the same setting: with `C[C@]12CC[C@H]3[C@@H](CC[C@H]4CNC(=O)CC[C@@]43C)C1=CC=C2c1cccnc1` [Compound 166, (5aR,5bS,7aS,10bR,12aR)-5a,7a-dimethyl-8-(pyridin-3-yl)-1,2,5,5a,5b,6,7,7a,10b,11,12,12a-dodecahydrocyclopenta[5,6]naphtho[2,1-c]azepin-3(4H)-one] the figure was 50 to 80%; with `C[C@]12CC[C@H]3[C@@H](CCC4CC(=O)NCC[C@@]43C)C1=CC=C2n1ccnn1` (stereo partly drawn) [Compound 178, (5aS,5bS,7aS,10bR)-5a,7a-dimethyl-8-(1H-1,2,3-triazol-1-yl)-3,4,5,5a,5b,6,7,7a,10b,11,12,12a-dodecahydrocyclopenta[5,6]naphtho[1,2-d]azepin-2(1H)-one], 1 to 50%.
Regarding `C[C@]12CC[C@H]3[C@@H](CCC4CNC(=O)CC[C@@]43C)C1=CC=C2n1ccnn1` (stereo partly drawn) [Compound 179, (5aR,5bS,7aS,10bR)-5a,7a-dimethyl-8-(1H-1,2,3-triazol-1-yl)-1,2,5,5a,5b,6,7,7a,10b,11,12,12a-dodecahydrocyclopenta[5,6]naphtho[2,1-c]azepin-3(4H)-one], the inhibition at 0.01 µM in assay [2] (setting [3]) was 1 to 50%.
For the compound `Cc1cncc(C2=CC[C@H]3[C@@H]4CCC5N(C)C(=O)COC[C@]5(C)[C@H]4CC[C@]23C)c1` (stereo partly drawn) [Compound 445, (5aR,5bS,7aS,10aS,10bS)-1,5a,7a-trimethyl-8-(5-methylpyridin-3-yl)-5,5a,5b,6,7,7a,10,10a,10b,11,12,12a-dodecahydro-1H-cyclopenta[5,6]naphtho[2,1-e][1,4]oxazepin-2(3H)-one], the inhibition at 0.01 µM in assay [2] (setting [3]) was 1 to 50%.
For `Cc1cncc(C2=CCC3C4CCC5=CN(C)CCC[C@]5(C)C4CC[C@]23C)c1` (stereo partly drawn) [Compound 446, (5aR,7aS)-2,5a,7a-trimethyl-8-(5-methylpyridin-3-yl)-2,3,4,5,5a,5b,6,7,7a,10,10a,10b,11,12-tetradecahydrocyclopenta[5,6]naphtho[2,1-c]azepine], the inhibition at 0.01 µM in assay [2] (setting [3]) was in the range of 1 to 50%.
On to `C[C@]12CC[C@H]3[C@@H](CC[C@H]4CNC(=O)CC[C@@]43C)C1=CC=C2n1ccnc1` [Compound 448, (5aR,5bS,7aS,10bR,12aR)-8-(1H-imidazol-1-yl)-5a,7a-dimethyl-1,2,5,5a,5b,6,7,7a,10b,11,12,12a-dodecahydrocyclopenta[5,6]naphtho[2,1-c]azepin-3(4H)-one], for which, in assay [2] (setting [4]), the inhibition at 0.01 µM fell in the range of 50 to 80%.
Same read-out and setting: in the case of `COC1CC[C@@]2(C)[C@@H](CC[C@@H]3[C@@H]2CC[C@]2(C)C(c4cccnc4)=CC[C@@H]32)C1` (stereo partly drawn) [Compound 449, 3-((5S,8R,9S,10S,13S,14S)-3-methoxy-10,13-dimethyl-2,3,4,5,6,7,8,9,10,11,12,13,14,15-tetradecahydro-1H-cyclopenta[a]phenanthren-17-yl)pyridine] it was 1 to 50%; in that of `COC1CC[C@@]2(C)[C@@H](CC[C@@H]3[C@@H]2CC[C@]2(C)C(c4cncc(C)c4)=CC[C@@H]32)C1` (stereo partly drawn) [Compound 450, 3-((5S,8R,9S,10S,13S,14S)-3-methoxy-10,13-dimethyl-2,3,4,5,6,7,8,9,10,11,12,13,14,15-tetradecahydro-1H-cyclopenta[a]phenanthren-17-yl)-5-methylpyridine], 1 to 50%.
On the same count and under the same terms, with `COC1CC[C@@]2(C)[C@@H](CC[C@@H]3[C@@H]2CC[C@]2(C)C(n4ccnn4)=CC[C@@H]32)C1` (stereo partly drawn) [Compound 452, 1-((5S,8R,9S,10S,13S,14S)-3-methoxy-10,13-dimethyl-2,3,4,5,6,7,8,9,10,11,12,13,14,15-tetradecahydro-1H-cyclopenta[a]phenanthren-17-yl)-1H-1,2,3-triazole] the figure was 1 to 50%.
